In one data set the test system is MCF-7/ADR. In words: Cytotoxicity CCK-8 assay, MCF-7/ADR. Format: cell-based. The settings on record: Homo sapiens, NCI/ADR-RES; for inhibition at 6.25 µM / inhibition at 12.5 µM / inhibition at 25 µM / inhibition at 50 µM / inhibition at 100 µM: 48 h, read-out: Cell proliferation inhibition (%).
The next data set concerns BEL7402. In words: Cytotoxicity CCK-8 assay, BEL7402. Format: cell-based. The following applies: Homo sapiens, Bel-7402; for IC50: BEL7402; for inhibition at 6.25 µM: BEL7402, 6.25 μM; for inhibition at 6.25 µM / inhibition at 12.5 µM / inhibition at 25 µM / inhibition at 50 µM / inhibition at 100 µM: 48 h, read-out: Cell proliferation inhibition (%); for inhibition at 12.5 µM: BEL7402, 12.5 μM; for inhibition at 25 µM: BEL7402, 25 μM; for inhibition at 50 µM: BEL7402, 50 μM; for inhibition at 100 µM: BEL7402, 100 μM. On the technique in general: Tetrazolium assays rely on reduction of a dye to a coloured formazan, in cell work by metabolically active cells.

The subject of the next data set is Hela229. Description: Cytotoxicity CCK-8 assay, Hela229. Format: cell-based. The following applies: Homo sapiens, HeLa 229; for IC50: Hela229; for inhibition at 6.25 µM: Hela229, 6.25 μM; for inhibition at 6.25 µM / inhibition at 12.5 µM / inhibition at 25 µM / inhibition at 50 µM / inhibition at 100 µM: 48 h, read-out: Cell proliferation inhibition (%); for inhibition at 12.5 µM: Hela229, 12.5 μM; for inhibition at 25 µM: Hela229, 25 μM; for inhibition at 50 µM: Hela229, 50 μM; for inhibition at 100 µM: Hela229, 100 μM.

The next data set has as its system SGC7901. Description: Cytotoxicity CCK-8 assay, SGC7901. The settings on record: Homo sapiens, SGC-7901; for IC50: SGC7901; for inhibition at 6.25 µM: SGC7901, 6.25 μM; for inhibition at 6.25 µM / inhibition at 12.5 µM / inhibition at 25 µM / inhibition at 50 µM / inhibition at 100 µM: 48 h, read-out: Cell proliferation inhibition (%); for inhibition at 12.5 µM: SGC7901, 12.5 μM; for inhibition at 25 µM: SGC7901, 25 μM; for inhibition at 50 µM: SGC7901, 50 μM; for inhibition at 100 µM: SGC7901, 100 μM. Format: cell-based.

Another data set has as its system PC-3. In words: Cytotoxicity CCK-8 assay, PC-3. Format: cell-based. The settings on record: Homo sapiens; for IC50: PC-3; for inhibition at 6.25 µM: PC-3, 6.25 μM; for inhibition at 6.25 µM / inhibition at 12.5 µM / inhibition at 25 µM / inhibition at 50 µM / inhibition at 100 µM: 48 h, read-out: Cell proliferation inhibition (%); for inhibition at 12.5 µM: PC-3, 12.5 μM; for inhibition at 25 µM: PC-3, 25 μM; for inhibition at 50 µM: PC-3, 50 μM; for inhibition at 100 µM: PC-3, 100 μM.

The subject of data set [1] is SH-SY5Y cells. Description: Neuroprotection against Aβ25−35-induced neurotoxicity (MTT).
Procedure: The cells, obtained from the American Type Culture Collection (ATCC, Manassas, VA, USA) at high passages, maintained at 37 °C in a humidified atmosphere containing 5% CO2. Cells were seeded into 96-well plates at a density of 2 × 10^5 cells/mL in MEM/F12 medium supplemented with 10% (v/v) fetal bovine serum. Experiments were carried out after 24 h of seeding. Test compounds and positive control (epigallocatechin-3-gallate, EGCG; NAC) were made to 10^−2 M stock solutions with DMSO and then diluted to corresponding concentrations with cell culture medium. Cells were incubated with test compounds or EGCG (10 μM, Sigma, St. Louis, MO, USA, purity > 98%)/NAC for 2 h, followed by exposure to 80 μM H2O2 or 10 μM Aβ25−35 for another 24 h without medium replacement. After treatment, 10 μL of MTT (5 mg/mL) was added to each well and incubated at 37 °C for 3 h. The cells were finally lysed with 100% DMSO, and the absorbance of MTT formazan was measured at 490 nm using a microplate reader.
The test system of data set [2] is SH-SY5Y cells. In words: Neuroprotection against H2O2-induced neurotoxicity (MTT). Type of data set: cell-based.
For the next data set, the system named is coxsackievirus B3. In words: Anti-coxsackievirus assay (CPE / MTT) in Vero cells. Type of data set: cell-based.
For data set [3], the system named is Hela229, SGC7901, PC-3, BEL7402, and MCF-7/ADR. In words: Cytotoxicity CCK-8 assay, small panel of human cancer cell lines (summary statements). Format: cell-based.
Data set [4] concerns influenza virus B/Victoria strain. In words: microbe, parasite or virus in culture. Type of data set: cell-based. The settings on record: MDCK cells.
For the next data set, the system named is influenza virus A/H3N2. Description: microbe, parasite or virus in culture. Format: cell-based, influenza virus A (H3N2 strain). The following applies: MDCK cells.
Setting [5] is: Homo sapiens, SH-SY5Y, read-out: Cell viability (% of control group).

Like-named read-outs stand apart in the source and are kept apart here. Some results are limits rather than exact numbers.

For the compound `O=C1NCCc2c1[nH]c1ccccc21` [Compound 9, 1,2,3,4-tetrahydro-1-oxo-β-carboline], in the data set with MCF-7/ADR, the IC50 was over 50 µM, the inhibition at 6.25 µM is -0.9%, the inhibition at 12.5 µM stood at 1.7% and the inhibition at 25 µM came out at 3.4%. In addition, in the data set with MCF-7/ADR, the inhibition at 50 µM is 2.9% and the inhibition at 100 µM amounted to 2.5%. Further, in the data set on BEL7402, the IC50 came to 41.5 µM, the inhibition at 6.25 µM stood at 12.5%, the inhibition at 12.5 µM is 24.4% and the inhibition at 25 µM came out at 44.4%. Also, in the data set with BEL7402, the inhibition at 50 µM came to 56.4% and the inhibition at 100 µM is 63.6%. In the data set with Hela229, the IC50 was 10.8 µM, the inhibition at 6.25 µM amounted to 37.1%, the inhibition at 12.5 µM is 53.7% and the inhibition at 25 µM was found to be 68.7%. Also, in the data set with Hela229, the inhibition at 50 µM turned out to be 83.3% and the inhibition at 100 µM was 88%. Moreover, in the data set with SGC7901, the IC50 was over 50 µM, the inhibition at 6.25 µM turned out to be 13.2%, the inhibition at 12.5 µM was 17.5% and the inhibition at 25 µM was determined as 27.1%. Besides, in the data set on SGC7901, the inhibition at 50 µM was determined as 37.4% and the inhibition at 100 µM was 44.3%. In addition, in the data set on PC-3, the IC50 was over 50 µM, the inhibition at 6.25 µM turned out to be 3%, the inhibition at 12.5 µM was 1.7% and the inhibition at 25 µM worked out at 4%. Besides, in the data set with PC-3, the inhibition at 50 µM was 2.6% and the inhibition at 100 µM was 14%.

As a reminder, the viability is the share of living cells, or the viability signal relative to a control. In the case of `O=C1O/C(=C(/C(=O)O)c2ccc(O)cc2)C(O)=C1c1ccc(O)c(O)c1` [Compound 18, xerocomic acid], in the data set on SH-SY5Y cells [1] (setting [5]), the viability at 2.5 µM was determined as 78.2 ± 1.53%, the viability at 5 µM came out at 77.6 ± 1.97%, the viability at 10 µM worked out at 80.3 ± 1.39% and the viability at 20 µM was 81.2 ± 1.79%. The viability at 40 µM in the data set on SH-SY5Y cells [1] (setting [5]) was 90.5%.

With `O=C1O/C(=C(/C(=O)O)c2ccc(O)c(O)c2)C(O)=C1c1ccc(O)c(O)c1` [Compound 19, variegatic acid], in the data set on SH-SY5Y cells [2] (setting [5]), the viability at 2.5 µM worked out at 56.4 ± 1.79%, the viability at 5 µM is 59.3 ± 2.94%, the viability at 10 µM worked out at 63.7 ± 2.8% and the viability at 20 µM turned out to be 71.5%. Also, the viability at 40 µM in the data set on SH-SY5Y cells [2] (setting [5]) was 81.9%.

As to `CC(C)[C@@H](C)/C=C/[C@@H](C)[C@H]1CC[C@H]2C3=C(CC[C@]12C)[C@@]1(C)CC[C@H](O)C[C@@]12O[C@H]2C3=O` [Compound 29, (22E,24R)-5α,6α-epoxy-3β-hydroxy-ergosta-8,22-dien-7-one], the “antiviral effect against coxsackievirus B3” value with coxsackievirus B3 is “moderate antiviral effect”. In the data set on coxsackievirus B3 (100 μg/mL, CVB-infected Vero cells), this compound had an increased cell survival of 35.4%. Further, the “cytopathic morphology of Vero cells infected with coxsackievirus B3” value with coxsackievirus B3 (100 μg/mL, microscope) was “reversed the cytopathic morphology”.

Take `CC(C)[C@@H](C)/C=C/[C@@H](C)[C@H]1CC[C@H]2C3=CC(=O)O[C@@]3(O)CC[C@]12C` [Compound 33, demethylincisterol A3]: the IC50 with MCF-7/ADR is over 50 µM; with BEL7402, 27.7 µM; in the data set with Hela229, 24.4 µM; in the data set on SGC7901, 26.7 µM; with PC-3, 28.4 µM; in [3] (Hela229, SGC7901, PC-3, and BEL7402 cells, read-out: IC50s), 20 to 30 µM. For the same compound, the inhibition at 6.25 µM in the data set on MCF-7/ADR was 5.5%; in the data set on BEL7402 it was 10%; in the data set with Hela229 it was -4.8%; in the data set with SGC7901, 8.3%; in the data set on PC-3, 12.4%. Also, the inhibition at 12.5 µM was found to be 5.1% with MCF-7/ADR; 15.3% in the data set with BEL7402; 5.8% in the data set on Hela229; 16.7% in the data set with SGC7901; 21.6% in the data set on PC-3. Also, the inhibition at 25 µM is 27.1% in the data set on MCF-7/ADR; 49.4% in the data set with BEL7402; 52.3% in the data set with Hela229; 39.1% in the data set with SGC7901; 47.3% in the data set with PC-3. The inhibition at 50 µM in the data set on MCF-7/ADR turned out to be 42.6%; in the data set with BEL7402 it was 75.3%; with Hela229 it was 96.2%; in the data set on SGC7901, 93.5%; in the data set on PC-3, 67.7%. Further, the inhibition at 100 µM with MCF-7/ADR turned out to be 81.6%; with BEL7402, 82.8%; in the data set on Hela229 it was 96.7%; in the data set with SGC7901, 94.7%; in the data set with PC-3, 85.9%.

`COc1cccc2c1C(=O)c1c(O)c3c(c(O)c1C2=O)C[C@@](O)(C(=O)CO)C[C@@H]3O[C@H]1C[C@H](N)[C@H](O)[C@H](C)O1` [Doxorubicin, reference compound]: the IC50 in the data set on MCF-7/ADR was 35.2 µM; in the data set on BEL7402, 1.59 µM; with Hela229 it was 0.75 µM; in the data set on SGC7901, 0.8 µM; in the data set with PC-3, 1.78 µM; in [3] (over the panel Hela229, SGC7901, PC-3, BEL7402, MCF-7/ADR, read-out: IC50), 0.75 to 35.2 µM. Also, the inhibition at 6.25 µM in the data set with MCF-7/ADR was found to be 46.5%. For the same compound, the inhibition at 12.5 µM in the data set on MCF-7/ADR was found to be 44.2%. Further, the inhibition at 50 µM in the data set with MCF-7/ADR was 52.7%. For the same compound, the inhibition at 100 µM in the data set on MCF-7/ADR was found to be 52.8%.

For `CC(=O)N[C@@H](CS)C(=O)O` [NAC, N-acetylcysteine, reference compound], the “Cell viability (% of control group)” value with SH-SY5Y cells [2] (500 μM compound, 80 μM H2O2, mean ± SEM) is given as 81.05%.

Broadly, the EC50 is the concentration that produces a half-maximal response. In the case of `NC(=O)c1ncn([C@@H]2O[C@H](CO)[C@@H](O)[C@H]2O)n1` [Ribavirin, reference compound], the inhibition at 3.13 µM in data set [4] (B/Victoria strain, 3.13 μM, read-out: CPE inhibition) came to 0%; with influenza virus A/H3N2 (Influenza A virus, A/H3N2 strain, 3.13 μM, read-out: CPE inhibition), 3.3%. For the same compound, the inhibition at 6.25 µM in data set [4] (B/Victoria strain, 6.25 μM, read-out: CPE inhibition) was 0%; in the data set with influenza virus A/H3N2 (Influenza A virus, A/H3N2 strain, 6.25 μM, read-out: CPE inhibition), 0%. The inhibition at 12.5 µM came to 25% in data set [4] (B/Victoria strain, 12.5 μM, read-out: CPE inhibition) and 10% in the data set with influenza virus A/H3N2 (Influenza A virus, A/H3N2 strain, 12.5 μM, read-out: CPE inhibition). In addition, the inhibition at 25 µM in data set [4] (B/Victoria strain, 25 μM, read-out: CPE inhibition) was 62.5%; in the data set on influenza virus A/H3N2 (Influenza A virus, A/H3N2 strain, 25 μM, read-out: CPE inhibition), 50.5%. The inhibition at 50 µM came out at 75% in data set [4] (B/Victoria strain, 50 μM, read-out: CPE inhibition) and 75% in the data set on influenza virus A/H3N2 (Influenza A virus, A/H3N2 strain, 50 μM, read-out: CPE inhibition). Also, the inhibition at 100 µM in [4] (B/Victoria strain, 100 μM, read-out: CPE inhibition) stood at 100%; in the data set with influenza virus A/H3N2 (Influenza A virus, A/H3N2 strain, 100 μM, read-out: CPE inhibition), 100%. For the same compound, the IC50 was found to be 20.6 µM in data set [4] (B/Victoria strain, Table S5, read-out: IC50) and 28.3 µM in the data set on influenza virus A/H3N2 (Influenza A virus, A/H3N2 strain, Table S5, read-out: IC50). Also, the EC50 is 20.6 µM in [4] (influenza virus B (Victoria strain), read-out: EC50) and 28.3 µM in the data set with influenza virus A/H3N2 (influenza virus A (H3N2 strain), read-out: EC50).

In the case of “epigallocatechin-3-gallate [EGCG, reference compound]”, in the data set with SH-SY5Y cells [1] (10 μM compound, 10 μM Aβ25-35, mean ± SEM), the “Cell viability (% of control group)” value came out at 104.80%.

The values above are taken from PMC11944884, “Bioactive Secondary Metabolites of Two Chinese Edible Boletes, Phlebopus portentosus and Butyriboletus roseoflavus” (Molecules, 2025).
